Results: publication PMC5402304, “Oxoaporphine Metal Complexes (Co^II, Ni^II, Zn^II) with High Antitumor Activity by Inducing Mitochondria-Mediated Apoptosis and S-phase Arrest in HepG2” (Scientific Reports, 2017)
Like-named read-outs stand apart in the source and are kept apart here.

Key:
HepG2 cells [1] = assay: Cell cycle analysis by flow cytometry; assay type: cell-based, human; settings: HepG2, 0.5 and 1.0 μM, 24 h, compared to untreated cells
Method: With the high cytotoxicity in vitro, HepG2 cells were selected to investigate the cell cycle treated with 1–3 (0.125, 0.25 and 0.5 μM) and OD (0.5 and 1.0 μM) for 24 h. […] However, 1–3 induced a significant increase of S-phase cell population in a dose-dependent manner.
Cell cycle progression and apoptosis were determined by flow cytometric analysis. (a) Cell cycle arrest assay: HepG2 cells in their logarithmic phase were plated into 50 mL plates at a final density of 5−6 × 10^6 cells/well overnight, then they were treated with various doses (0.25, 0.5 and 1.0 μM) of 1–3 for another 24 h. Cells were trypsinized, collected, and fixed in ice-cold 75% ethanol at −20 °C overnight. After centrifugation, the fixed cells were rinsed with ice-cold phosphate buffered saline (PBS), and resuspended in 0.5 mL of PBS containing 100 μg/mL RNase, 50 μg/mL propidium iodide (PI) in the dark for 5−10 min. The cell cycle distribution was analyzed by FACS Calibur flow cytometer (BD) and calculated using ModFIT LT software. (b) Apoptosis assay: 1 × 10^5 HepG2 cells were plated in 6-well plates, after incubation for 24 h with complexes 1–3 at 1.0, 2.0 and 5.0 μM, cells were collected, and Apoptosis Detection kit FITC Annexin V was used to analyze the cell apoptosis according to the manufacturer’s instructions.

SK-OV-3/DDP = assay: MTT cytotoxicity assay, SK-OV-3/DDP; assay type: cell-based, human
Method: (§1) The in vitro cytotoxicity of OD, 1–3 and the corresponding metal salts were determined by MTT assay towards a panel of human tumor cells including HepG2, T-24, BEL-7404, MGC80-3, SK-OV-3/DDP and normal HL-7702 cells. As the positive control, cisplatin was dissolved at a concentration of 1 mM in 0.154 M NaCl[32].
(§2) The human tumor cell lines (BEL-7404, HepG2, MGC80–3, T-24, SK-OV-3/DDP and HeLa cells) and the human normal liver cell line HL-7702 were obtained from Shanghai Cell Bank in Chinese Academy of Sciences. Cells were cultured in Dulbecco’s modified Eagle’s medium (DMEM) or RPMI-1640 medium, which supplemented with 10% fetal bovine serum (FBS) and 100 U/mL penicillin and streptomycin. Cells were cultured at 37 °C in a humidified atmosphere with 5% CO2/95% air. Tested compounds (2.0 mM) were prepared as DMSO stock solution before they were diluted to working concentrations by PBS buffer (containing 0.5% DMSO), while cisplatin dissolved in 0.9% sodium chloride solution was used as positive controls.
(§3) Cells in their logarithmic phase were seeded in 96-well plates with 5.5 × 10^3/180 μL per well for 24 h. Then 20 μL of compounds at various concentrations were added to each well to achieve final concentrations of 1.25, 2.5, 5.0, 10.0, and 20.0 μM. All the cells were incubated with test compounds for another 48 h before MTT assay. Control wells contained media with 0.5% DMSO. After 48 h of cultivation, 10 μL of MTT (5 mg/mL in PBS) was added to each well, and cells were incubated at 37 °C for 6 h. The contents in the wells were pipetted out carefully, and the formazan crystals formed were dissolved in 100 μL of DMSO, and the absorbance was measured by enzyme labeling instrument with 490 nm/630 nm double wavelength measurement. The IC50 value was defined as a drug concentration killing 50% cells in comparison with untreated controls, which was calculated by the Bliss method (n = 5). All tests were repeated in at least three independent trials.

T-24 = assay: MTT cytotoxicity assay, T-24; assay type: cell-based, human
Method: as §1, §2, §3

HepG2 cells [2] = assay: Comet assay for DNA damage; assay type: cell-based, human; design: unit not given here; settings: HepG2, 1.0 μM, 24 h
Method: After the observation of significant S-phase arrest caused by 1–3, the study of DNA damage assay is necessary. The single cell gel electrophoresis technique (comet assay) is a simple, sensitive, reliable, and rapid method to detect DNA damage in eukaryotic cell[39]. As shown in Table 3 and Fig. 6, 1–3 at 1.0 μM induced DNA damage (fragmentation or unwinding) appeared as fluorescent comets with remarkable increase of tails size, especially for 3.
The comet assay is a simple method for measuring DNA strand breaks in cells. The comet assay reagent kit was purchased from Trevigen, and the experiment was carried out according to the manufacturer’s instructions. After treatment with OD and 1–3 at 1.0 μM, HepG2 cells were harvested and suspended at 1 × 10^6 Hep-G2 cells/mL in PBS. The cells suspension was mixed with melted LM agarose at a ratio of 1:10 (v/v). An aliquot (75 μL) of the mixture was immediately pipetted onto the slide (Comet Slide TM). After refrigeration for 30 min, the slide was immersed in pre-chilled lysis solution and left on ice for 60 min, followed by immersing in freshly prepared alkaline solution (300 mM NaOH, 1 mM EDTA, pH > 13) for 60 min on ice in darkness. After DNA unwinding, the slide was subjected to alkaline solution for electrophoresis in a Savant ps 250 system set at 300 mA and 1 volt/cm for 30 min. After electrophoresis, the slide was rinsed with distilled H2O, fixed in 70% ethanol for 5 min and air-dried overnight. DNA was stained with SYBR Green I (Trevigen) and visualized under a fluorescence microscope (Nikon, Eclipse E600).

MGC80-3 = assay: MTT cytotoxicity assay, MGC80-3; assay type: cell-based, human
Method: as §1, §2, §3

HL-7702 = assay: MTT cytotoxicity assay, normal liver cells HL-7702; assay type: cell-based, human; settings: 48 h
Method: as §1, §2, §3

HepG2 = assay: MTT cytotoxicity assay, HepG2; assay type: cell-based, human
Method: as §1, §2, §3

[3] = test system: HepG2, T-24, BEL-7404, MGC80-3, SK-OV-3/DDP; assay: MTT cytotoxicity assay, panel of human tumor cells; assay type: cell-based; settings: 48 h, range over all the tested tumor cells, read-out: inhibition rate
Method: as §1, §2
Cells in their logarithmic phase were seeded in 96-well plates with 5.5 × 10^3/180 μL per well for 24 h. […] The contents in the wells were pipetted out carefully, and the formazan crystals formed were dissolved in 100 μL of DMSO, and the absorbance was measured by enzyme labeling instrument with 490 nm/630 nm double wavelength measurement. […]

BEL-7404 [4] = assay: MTT cytotoxicity assay, BEL-7404; assay type: cell-based, human
Method: as §1, §2, §3

Hep-G2 = settings: read-out: Antitumor activity: IC50; cited from earlier work
NCI-H460 = settings: read-out: Antitumor activity: IC50; cited from earlier work
SK-OV-3 = test system: SK-OV-3; design: method as in PMID 27898051; settings: read-out: Antitumor activity: IC50; cited from earlier work
HT-29 = test system: HT-29; design: method as in PMID 20023911; settings: read-out: Antitumor activity: IC50; cited from earlier work
A2780 = test system: A2780; design: method as in PMID 20023911; settings: read-out: Antitumor activity: IC50; cited from earlier work
BEL-7404 [5] = settings: read-out: Antitumor activity: IC50; cited from earlier work

Compound: COc1cc2c(cc1O)C(=O)c1nccc3cc(OC(C)C)c(OC)c-2c13 [OD]
- effect on the population of the cell cycle (HepG2 cells [1]): barely change the population of the cell cycle
- IC50 (SK-OV-3/DDP; Homo sapiens, SK-OV-3/DDP, 48 h, MTT): 38.5 ± 1.42 µM
- folds higher cytotoxicity than cisplatin (SK-OV-3/DDP; SK-OV-3/DDP, ratio of IC50): 2 folds
- inhibitive ratio (SK-OV-3/DDP; SKOV-3/DDP, 20 μmol/L, 48 h): 45.57±1.94%
- IC50 (T-24; Homo sapiens, T-24, 48 h, MTT): 9.12 ± 0.11 µM
- inhibitive ratio (T-24; T-24, 20 μmol/L, 48 h): 46.91±0.17%
- Comet length (HepG2 cells [2]): 49.45 ± 6.19
- Olive tail moment (HepG2 cells [2]): 0.13 ± 0.29
- Tail length (HepG2 cells [2]): 1.96 ± 1.78
- Tail moment (HepG2 cells [2]): 0.12 ± 0.21
- IC50 (MGC80-3; Homo sapiens, MGC-803, MGC80-3, 48 h, MTT): 23.3 ± 0.88 µM
- inhibitive ratio (MGC80-3; MGC80-3, 20 μmol/L, 48 h): 42.28±0.24%
- inhibitive ratio (HL-7702; HL-7702, 20 μmol/L): 46.55±0.67%
- IC50 (HL-7702; Homo sapiens, L02, HL-7702 normal liver cells, MTT): 9.28 ± 0.43 µM
- inhibitive ratio (HepG2; HepG2, 20 μmol/L, 48 h): 33.35±0.32%
- IC50 (HepG2; Homo sapiens, HepG2, 48 h, MTT): 8.98 ± 0.76 µM
- inhibition at 20 µM [3]: 33 to 47%
- inhibitive ratio (BEL-7404 [4]; BEL-7404, 20 μmol/L, 48 h): 36.28±0.18%
- IC50 (BEL-7404 [4]; Homo sapiens, BEL-7404, 48 h, MTT): 24.8 ± 1.02 µM

Compound: Nc1c(Cl)ccc2c1-c1nccc3cccc(c13)C2=O.[Cl][Ni][Cl] [Complex C00006]
- IC50 (Hep-G2): 28.8 µM
- IC50 (NCI-H460): 35.2 µM
- IC50 (SK-OV-3): 29.1 µM

Compound: Nc1cccc2c1C(=O)c1cccc3ccnc-2c13.[Cl][Ni][Cl] [Complex C00005]
- IC50 (Hep-G2): 18.2 µM
- IC50 (NCI-H460): 15.6 µM
- IC50 (SK-OV-3): 15 µM

Compound: O=C1c2ccccc2-c2c3c(cc4ccnc1c24)OCO3.O=C1c2ccccc2-c2c3c(cc4ccnc1c24)OCO3.[Cl][Zn][Cl].[Cl][Zn][Cl] [Complex C00008]
- IC50 (HT-29): 5.8 µM
- IC50 (A2780): 6.7 µM
- IC50 (BEL-7404 [5]): 8.4 µM
